According to publication PMC9968691, “Perfluoroalkyl substances (PFASs) are substrates of the renal human organic anion transporter 4 (OAT4)” (Archives of Toxicology, 2022):
Entries after “also recorded” stand apart in the source; their conditions may differ. Marks after values point to notes of the source that are not given here.

T1: human OAT4 (Homo sapiens, UniProt Q9NSA0)
T1 construct: expressed in transfected cells; host or cells: HEK293 cells transduced with recombinant baculovirus (CMV promoter)
T1 sequence (Q9NSA0 1-550): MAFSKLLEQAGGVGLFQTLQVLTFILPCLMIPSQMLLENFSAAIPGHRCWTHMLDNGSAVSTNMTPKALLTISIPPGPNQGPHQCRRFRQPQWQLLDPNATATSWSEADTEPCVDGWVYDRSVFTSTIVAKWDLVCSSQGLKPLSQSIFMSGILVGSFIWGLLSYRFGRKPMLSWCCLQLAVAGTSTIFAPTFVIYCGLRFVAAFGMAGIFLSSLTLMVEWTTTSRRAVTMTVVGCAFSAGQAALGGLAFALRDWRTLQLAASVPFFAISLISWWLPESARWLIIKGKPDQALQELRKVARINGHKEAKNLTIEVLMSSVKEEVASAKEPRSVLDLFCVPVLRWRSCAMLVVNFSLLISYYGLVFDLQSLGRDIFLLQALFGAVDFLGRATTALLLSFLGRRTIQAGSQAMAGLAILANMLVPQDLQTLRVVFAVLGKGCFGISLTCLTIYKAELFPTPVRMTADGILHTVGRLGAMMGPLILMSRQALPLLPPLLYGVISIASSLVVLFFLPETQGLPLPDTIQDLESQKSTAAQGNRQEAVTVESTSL

T2: human URAT1 (Homo sapiens, UniProt Q96S37)
T2 construct: expressed in transfected cells; host or cells: HEK293 cells transduced with recombinant baculovirus (CMV promoter)
T2 sequence (Q96S37 1-553): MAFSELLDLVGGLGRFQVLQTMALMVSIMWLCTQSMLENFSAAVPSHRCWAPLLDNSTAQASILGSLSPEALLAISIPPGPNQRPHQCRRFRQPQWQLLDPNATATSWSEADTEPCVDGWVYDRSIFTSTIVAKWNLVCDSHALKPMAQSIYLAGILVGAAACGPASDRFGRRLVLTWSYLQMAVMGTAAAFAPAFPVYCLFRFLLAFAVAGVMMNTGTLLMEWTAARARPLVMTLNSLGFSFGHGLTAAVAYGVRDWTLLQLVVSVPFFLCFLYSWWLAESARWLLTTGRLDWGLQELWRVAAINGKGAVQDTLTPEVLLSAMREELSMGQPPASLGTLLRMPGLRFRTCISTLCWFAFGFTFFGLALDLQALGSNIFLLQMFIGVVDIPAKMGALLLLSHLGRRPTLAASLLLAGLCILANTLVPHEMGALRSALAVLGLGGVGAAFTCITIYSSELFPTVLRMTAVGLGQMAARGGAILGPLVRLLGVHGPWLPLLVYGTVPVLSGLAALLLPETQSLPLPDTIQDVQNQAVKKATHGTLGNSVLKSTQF

B1: human OAT4 (Homo sapiens) (protein)
chain: T1 sequence (Q9NSA0 1-550)
notes: expressed in transfected cells; host or cells: HEK293 cells transduced with recombinant baculovirus (CMV promoter)

Legend:
human OAT4 [1] = molecular target: T1, human OAT4; assay: Screening of cellular PFAS accumulation in OAT4-transfected vs control-transfected HEK293 cells (PFAS mixture); format: cell-based; details: for Transport by OAT4 (cellular PFAS level in OAT4-transfected vs control-transfected cells; substantial = at least twofold higher): PFAS mixture, each 1 µM, 10 min; for OAT4 substrate: yes/no as identified in vitro in this study
Excerpt: (§1) The recombinant baculoviruses that contain the cDNA of human transporters OAT4 and URAT1 downstream of a cytomegalovirus (CMV) promotor were generated as previously described (Smeets et al. [2020]). As a negative control, baculovirus containing the gene for enhanced yellow fluorescence protein (eYFP) was produced similarly. Moreover, transduction of HEK293 cells and uptake assays were essentially performed as previously described (Smeets et al. [2020]). The culture medium was removed and cells were washed with buffer (HBSS plus 10 mM HEPES, pH 7.4). Uptake was initiated by replacing this solution with 150 µL of fresh transport buffer (HBSS (Life Technologies Invitrogen (Carlsbad, CA, USA))-HEPES (Sigma-Aldrich), pH 7.4) supplemented with the PFASs for 10 min. To terminate the reaction, transport buffer was replaced with 400 µL ice-cold HBSS-HEPES buffer containing 0.5% BSA (m/v; Roche Diagnostics GmbH (Mannheim, Germany)), after which the cells were washed twice with ice-cold HBSS-HEPES. Cellular PFAS concentrations were determined based on the method described by Rosenmai et al. ([2018]). Briefly, cells were solubilised in 250 µL lysis buffer and cell lysates were stored in Eppendorf tubes at − 80 °C and defrozen when needed for LC–MS analysis and for quantification of the protein concentration.
(§2) To 50 μL cell lysate, 850 μL methanol (Actu-All Chemicals, Oss, The Netherlands) containing internal standards (^13C4-PFHpA, ^13C4-PFOA, ^13C5-PFNA, ^13C2-PFDA, ^13C3-PFBS, ^18O2-PFHxS and ^13C4-PFOS (Wellington Laboratories, Canada) was added. These dilutions were vortexed well before centrifugation at maximum speed for 10 min at 4 °C. PFAS concentrations in the supernatant were determined using LC–MS/MS analysis. If required, samples were further diluted with methanol and containing internal standards. LC–MS/MS analysis was based on a Shimadzu UHPLC system containing: 2 pumps (LC 20AD xr); column oven (Shimadzu CTO-20AC); pump switch (Shimadzu FCV-11AL); degasser (Shimadzu DGU-20A3); and sample tray holder (Shimadzu SIL-20 AC XR model) (Shimadzu Corporation, Kyoto, Japan). An Acquity BEH-C18 analytical column (50 × 2.1 mm i.d., 1.7 μm, Waters, Milford, MA, USA) was used to separate the PFASs at a column temperature of 35 °C. In addition, a symmetry C18 analytical column (50 × 2.1 mm i.d., 5 µm, Waters, Milford, MA, USA) was used as a guard column, placed between the pump and the injector valve to isolate and delay interferences out of the LC system. The mobile phase consisted of 2 mM ammonium acetate (Merck Millipore, Darmstadt, Germany) in Milli-Q water (prepared using a Milli-Q system with a resistivity of at least 18.2 MΩ cm^−1 (Merck Millipore)) (mobile phase A) and Acetonitrile ULC/MS grade (Actu-All Chemicals, Oss, The Netherlands) (mobile phase B). The injection volume used was 20 μL. The chromatographic gradient was operated at a flow rate of 0.3 mL min^−1 starting from 25% mobile phase B in the first 0.1 min, a linear increase to 100% B in 6 min with a final hold of 2.5 min. The gradient was returned to 25% B within 0.1 min for 3.9 min to equilibrate before the next injection, resulting in a total run of 12.5 min.
(§3) Cellular PFAS content was normalised to cellular protein. To that end, from each cell lysate, 25 µL was used to determine the protein concentration (technical duplicate) using the Pierce BCA Protein Assay Kit (Thermo Scientific, Waltham, MA). First, samples were diluted two times with lysis buffer directly in a 96-wells plate (PS, F-bottom, clear; Greiner Bio-One, Alphen aan de Rijn, The Netherlands), and in each plate, a BSA standard curve (0.05–2 mg mL^−1 in lysis buffer) was included allowing protein quantification of the samples. The manufacturer’s protocol was followed for the subsequent steps and absorbance was measured using a microplate reader (Synergy™ HT BioTek, Winooski, VT) at 562 nm. […]

human URAT1 = molecular target: T2, human URAT1; assay: Screening of cellular PFAS accumulation in URAT1-transfected vs control-transfected HEK293 cells (PFAS mixture); format: cell-based; details: yes/no as identified in vitro in this study
Excerpt: as §1, §2, §3

albumin = details: cited from earlier work; for Reported albumin/water partition coefficients: ref Allendorf et al. (2019)
[2] = cited from earlier work; for Reported half-life in humans: (average) serum half-life, ref Xu et al. (2020) for PFHpA, Olsen et al. (2007), Li et al. (2018), Xu et al. (2020) for PFOA, PFHxS, PFOS, Olsen et al. (2009) for PFBS; for Reported (average) serum half-life in humans: ref Olsen et al. (2009) for PFBS, Xu et al. (2020) for PFHpA
human OAT4 [3] = molecular target: T1, human OAT4; assay: OAT4-mediated cellular uptake kinetics (Michaelis–Menten) in OAT4-transfected vs control-transfected HEK293 cells; format: cell-based; details: OAT4-transfected minus control-transfected HEK293 cells, 1 min exposure, 1-300 µM; best-fit value (standard error)
Protocol: (§4) OAT4- and control-transfected cells were exposed for 1 min to a range of PFAS concentrations (1, 3, 10, 30, 100 and 300 µM) and cellular amounts were determined.
(§5) OAT4-transfected cells and control-transfected cells were exposed for 1 min to a range of PFAS concentrations and cellular amounts were determined. Amounts obtained in control-transfected cells were subtracted from amounts obtained in OAT4-transfected cells to obtain OAT4-mediated cellular uptake rates.

[4] = substrate: O=C(O)C(F)(F)C(F)(F)C(F)(F)C(F)(F)C(F)(F)C(F)(F)C(F)(F)C(F)(F)C(F)(F)F; assay: cells, lysate or membranes; details: other: OAT4-transfected minus control-transfected HEK293 cells, 1 min exposure, 1-300 µM; best-fit value (standard error); pH 7.4
[5] = substrate: O=C(O)C(F)(F)C(F)(F)C(F)(F)C(F)(F)C(F)(F)C(F)(F)C(F)(F)C(F)(F)F; assay: cells, lysate or membranes; details: other: OAT4-transfected minus control-transfected HEK293 cells, 1 min exposure, 1-300 µM; best-fit value (standard error); pH 7.4
[6] = substrate: O=S(=O)(O)C(F)(F)C(F)(F)C(F)(F)C(F)(F)C(F)(F)C(F)(F)C(F)(F)C(F)(F)F; assay: cells, lysate or membranes; details: other: OAT4-transfected minus control-transfected HEK293 cells, 1 min exposure, 1-300 µM; best-fit value (standard error); pH 7.4
[7] = substrate: O=C(O)C(F)(F)C(F)(F)C(F)(F)C(F)(F)C(F)(F)C(F)(F)C(F)(F)F; assay: OAT4-mediated cellular uptake kinetics (Michaelis–Menten) in OAT4-transfected vs control-transfected HEK293 cells; format: cell-based, human; details: other: OAT4-transfected minus control-transfected HEK293 cells, 1 min exposure, 1-300 µM; best-fit value (standard error); pH 7.4
Protocol: as §4, §5

[8] = substrate: O=C(O)C(F)(F)C(F)(F)C(F)(F)C(F)(F)C(F)(F)C(F)(F)F; assay: as above; format: cell-based, human; details: other: OAT4-transfected minus control-transfected HEK293 cells, 1 min exposure, 1-300 µM; best-fit value (standard error); pH 7.4
Protocol: as §4, §5

[9] = substrate: O=S(=O)(O)C(F)(F)C(F)(F)C(F)(F)C(F)(F)C(F)(F)C(F)(F)F; assay: as above; format: cell-based, human; details: other: OAT4-transfected minus control-transfected HEK293 cells, 1 min exposure, 1-300 µM; best-fit value (standard error); pH 7.4
Protocol: as §4, §5

Molecule | Transport by OAT4 (cellular PFAS level in OAT4-transfected vs control-transfected cells; substantial = at least twofold higher) (human OAT4 [1]) | OAT4 substrate (human OAT4 [1]) | URAT1 substrate (human URAT1) | Reported half-life in humans [2] | Reported (average) serum half-life in humans [2] | Reported albumin/water partition coefficients (albumin) | further results
O=S(=O)(O)C(F)(F)C(F)(F)C(F)(F)C(F)(F)F [PFBS, perfluorobutane sulfonate] | rather limited; also recorded: limited transport | No | No | 0.07–0.12^d years | 26 to 44 days | – | Binding to albumin (albumin; compared to the other PFASs, ref Allendorf et al. 2019, Gao et al. 2019, Lu et al. 2021): relatively low binding to albumin
O=C(O)C(F)(F)C(F)(F)C(F)(F)C(F)(F)C(F)(F)C(F)(F)C(F)(F)C(F)(F)C(F)(F)F [PFDA, perfluorodecanoic acid] | substantial transport; also recorded: more than twofold increase | Yes | No | – | – | 4.7 L/kg | –
O=C(O)C(F)(F)C(F)(F)C(F)(F)C(F)(F)C(F)(F)C(F)(F)F [PFHpA, Perfluoroheptanoic acid] | substantial transport; also recorded: more than twofold increase | Yes | No | 0.17^b years | 62 days | 4.0 L/kg | –
O=S(=O)(O)C(F)(F)C(F)(F)C(F)(F)C(F)(F)C(F)(F)C(F)(F)F [PFHxS, Perfluorohexane sulfonate] | substantial transport; also recorded: more than twofold increase | Yes | No | 2.9–8.5^c years | – | – | –
O=C(O)C(F)(F)C(F)(F)C(F)(F)C(F)(F)C(F)(F)C(F)(F)C(F)(F)C(F)(F)F [PFNA, perfluorononanoic acid] | substantial transport; also recorded: more than twofold increase | Yes | No | – | – | 4.3 L/kg | Apparent Vmax (human OAT4 [3]): 8.5 nmol min^−1 mg protein^−1
B1 | – | – | – | – | – | – | Km [4]: 39 (15) µM; Vmax [4]: 0.006 µmol/min/mg; Vmax/Km [4]: 154 µL min^−1 mg protein^−1; Km [5]: 58 (15) µM; Vmax [5]: 0.0085 µmol/min/mg; Vmax/Km [5]: 147 µL min^−1 mg protein^−1; Km [6]: 48 (24) µM; Vmax [6]: 0.0022 µmol/min/mg; Vmax/Km [6]: 46 µL min^−1 mg protein^−1; Km [7]: 47 (15) µM; Vmax [7]: 0.0045 µmol/min/mg; Vmax/Km [7]: 96 µL min^−1 mg protein^−1; Km [8]: 60 (15) µM; Vmax [8]: 0.0045 µmol/min/mg; Vmax/Km [8]: 75 µL min^−1 mg protein^−1; Km [9]: 92 (33) µM; Vmax [9]: 0.0073 µmol/min/mg; Vmax/Km [9]: 79 µL min^−1 mg protein^−1
